Experimental data published in PubChem BioAssay AID1068 (Emory University Molecular Libraries Screening Center, 2008).
The source made the active and inactive calls.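 Rule for the calls: active = IC50 of 15 µM or lower, and residual activity at the IC50 concentration no higher than 60%; inactive = the rest.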

Molecular target: Ubiquitin carboxyl-terminal hydrolase BAP1 (Homo sapiens) (UniProt Q92560)
Test: BAP1 inhibitor potency with two substrates, dose response, biochemical, Ub-AMC versus Ub-rhodamine substrates (AID 1068)
Settings: recombinant BAP1, Ub-rhodamine hydrolysis fluorescence
[1] = measured here: Ub-AMC substrate assay

Chain of Ubiquitin carboxyl-terminal hydrolase BAP1 (Homo sapiens) (Q92560 whole entry, looked up): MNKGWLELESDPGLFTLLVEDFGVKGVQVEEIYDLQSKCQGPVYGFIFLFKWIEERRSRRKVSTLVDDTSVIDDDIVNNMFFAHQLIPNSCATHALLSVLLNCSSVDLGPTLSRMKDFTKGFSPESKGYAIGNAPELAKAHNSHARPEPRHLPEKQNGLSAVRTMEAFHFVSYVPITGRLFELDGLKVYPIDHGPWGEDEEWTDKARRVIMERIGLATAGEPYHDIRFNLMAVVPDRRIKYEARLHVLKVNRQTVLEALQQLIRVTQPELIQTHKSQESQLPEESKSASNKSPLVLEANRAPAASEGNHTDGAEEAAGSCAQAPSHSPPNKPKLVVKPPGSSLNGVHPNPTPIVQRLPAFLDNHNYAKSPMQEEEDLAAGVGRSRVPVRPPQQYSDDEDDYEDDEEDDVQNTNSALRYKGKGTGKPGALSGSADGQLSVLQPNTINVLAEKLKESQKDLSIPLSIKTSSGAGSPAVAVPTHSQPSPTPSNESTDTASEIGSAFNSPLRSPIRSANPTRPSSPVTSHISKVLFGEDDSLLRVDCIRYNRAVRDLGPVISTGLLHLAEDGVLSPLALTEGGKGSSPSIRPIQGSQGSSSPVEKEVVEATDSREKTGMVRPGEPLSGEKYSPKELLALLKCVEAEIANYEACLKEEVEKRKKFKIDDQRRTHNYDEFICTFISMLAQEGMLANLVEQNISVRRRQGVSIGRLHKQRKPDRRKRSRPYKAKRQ

Compound | IC50 | IC50 [1] [µM] | outcome
COc1ccccc1NC(=O)c1ccccc1-c1nc(-c2ccc(Cl)cc2)no1 | inactive | 40.1 | 
O=C(Nc1cccc(O)c1)c1ccccc1-c1nc(-c2cccc(Cl)c2)no1 | inactive | 27.1 | 
COc1cccc(NC(=O)c2ccccc2-c2nc(-c3ccc(Cl)cc3)no2)c1 | inactive | 39.9 | 
Cc1ccc(-c2c(C)sc(NC(=O)CSc3nnc(-c4ccc(Cl)cc4)o3)c2C#N)cc1C | 13.5 µM | 32.6 | 
Cc1sc(NC(=O)CSc2nnc(-c3ccccc3)o2)c(C#N)c1C | inactive | 47.8 | 
Cc1sc(NC(=O)CSc2nnc(-c3ccc(F)cc3)o2)c(C#N)c1C | inactive | 99.7 | 
N#Cc1c(NC(=O)CSc2nnc(-c3ccc(F)cc3)o2)sc2c1CCCC2 | inactive | 41.7 | 
O=C(O)c1ccccc1-c1nc(-c2ccc(Cl)cc2)no1 | inactive | 1.31 | 
Cc1sc(NC(=O)CSc2nc3ncnc(N)c3[nH]2)c(C#N)c1C |  | > 100 | inactive
COc1cccc(NC(=O)c2ccccc2-c2nc(-c3cccc(Cl)c3)no2)c1 | inactive | 37.5 | 
Cc1sc(NC(=O)CSc2nnc(-c3ccc(Cl)cc3)o2)c(C#N)c1C | 9.54 µM | 37.4 | 
COc1cc(-c2nnc(SCC(=O)Nc3sc(C)c(-c4ccc(F)cc4)c3C#N)o2)cc(OC)c1OC | inactive | 39.6 | 
COc1cc(-c2nnc(SCC(=O)Nc3sc(C)c(C)c3C#N)o2)cc(OC)c1OC |  | 2.32 | inactive
Cc1sc(NC(=O)CSc2nnc(-c3ccccc3)o2)c(C#N)c1-c1ccc(F)cc1 | 12.5 µM | 32.1 | 
N#Cc1c(NC(=O)CSc2nnc(-c3ccc(Cl)cc3)o2)sc2c1CCCC2 | inactive | > 100 | 
Cc1sc(NC(=O)CSc2nnc(-c3ccc(Cl)cc3)o2)c(C#N)c1-c1ccc(F)cc1 | 5.51 µM | > 100 | 
Cc1ccc(-c2c(C)sc(NC(=O)CSc3nnc(-c4ccc(F)cc4)o3)c2C#N)cc1C | 10 µM | 37 | 
Cc1oc(NC(=O)CSc2n[nH]c(-c3ccc(F)cc3)n2)c(C#N)c1C | > 100 µM (inactive) | 46.5 | 
O=C(NCc1ccccn1)c1cc2nc(-c3ccc4c(c3)OCO4)cc(C(F)(F)F)n2n1 |  | > 100 | inactive
CCCc1cc(=O)[nH]c(SCC(=O)Nc2ccc(C(=O)OC)cc2)n1 |  | > 100 | inactive
Cc1sc(NC(=O)CSc2n[nH]c(-c3ccc(O)cc3)n2)c(C#N)c1-c1ccc(F)cc1 | 9.11 µM | 15.3 | 
O=C(NCc1cccs1)c1cc2nc(-c3ccc4c(c3)OCO4)cc(C(F)(F)F)n2n1 | inactive | 44.7 | 

Other lines, results leading:

IC50 | IC50 [1] [µM] | outcome | Compound
inactive | 69.8 |  | Cc1ccc(-c2c(C)sc(NC(=O)CSc3nnc(-c4ccccc4)o3)c2C#N)cc1C
> 100 µM (inactive) | > 100 |  | Cc1cccc2cc(C(c3nnnn3C(C)(C)C)N3CCN(C(=O)OC(C)(C)C)CC3)c(=O)[nH]c12 (stereo not drawn)
inactive | > 100 |  | O=C(NCc1ccco1)c1cc2nc(-c3ccc4c(c3)OCO4)cc(C(F)(F)F)n2n1
inactive | > 100 |  | Cc1cccc2cc(C(C#N)N3CCN(C(=O)OC(C)(C)C)CC3)c(=O)[nH]c12 (stereo not drawn)
 | > 100 | inactive | CCc1cc(=O)[nH]c(SCC(=O)Nc2ccc(C(=O)OC)cc2)n1
< 0.78 µM (inactive) | 55.7 |  | Cc1cccc2cc(C(c3nnnn3C(C)(C)C)N3CCN(C(=O)c4ccco4)CC3)c(=O)[nH]c12 (stereo not drawn)
inactive | > 100 |  | Cc1cccc2cc(C(c3nnnn3C(C)(C)C)N3CCNCC3)c(=O)[nH]c12 (stereo not drawn)
inactive | 1.55 |  | Cc1cccc2cc(C(C#N)N3CCNCC3)c(=O)[nH]c12 (stereo not drawn)
 | 5.62 | inactive | CCc1ccc(NC(=O)CSc2nc(C)cc(=O)[nH]2)cc1
> 100 µM (inactive) | 58.8 |  | O=C(O)c1ccccc1-c1nc(-c2cccc(Cl)c2)no1
 | > 100 | inactive | COC(=O)c1ccc(NC(=O)CSc2nc(C)cc(=O)[nH]2)cc1
> 100 µM (inactive) | 38.9 |  | Cc1cccc2cc(C(c3nn[nH]n3)N3CCN(C(=O)OC(C)(C)C)CC3)c(=O)[nH]c12 (stereo not drawn)
